Data from patent US12433866B2, “Lasofoxifene treatment of aromatase-resistant ER+ cancer” (Sermonix Pharmaceuticals, Inc., priority 2021, dated 2025).

Legend:
MCF7 LTLT primary tumors [1] = assay: Mammary gland weight at sacrifice, MCF7 LTLT MIND model; type: in vivo, NSG mice; settings: Let− cohort
Procedure: Mouse studies were performed in compliance with an approved Institutional Animal Care and Use Committee protocol. NSG (NOD.Cg-Prkdcscid Il2rgtmlWjl/SzJ) mice were purchased from The Jackson Laboratories. Prior to injection, mice were anesthetized via inhalation with 2-3% isoflurane in oxygen. Injections of single-cell suspensions of 250,000 MCF7 cells in the mammary ducts of inguinal glands 4 and 9 were performed as described (Behbod, F., et al. Breast Cancer Res. 11, R66 (2009); Sflomos, G., et al. Cancer Cell 29, 407-422 (2016); Laine, M., et al. Breast Cancer Res. 23, 54 (2021)). Tumor growth in situ was followed via imaging in a Xenogen IVIS 200 instrument in the Integrated Small Animal Imaging Research Resource at the University of Chicago. For IVIS imaging, mice were injected with 100 μl of a 0.1 M luciferin solution in PBS (Perkin Elmer XenoLight #122799).
After cell injection, mice were separated into 2 equal groups; one group received 10 μg/day of letrozole in 15% PEG400 in PBS via subcutaneous injection, “LTLT-Let”; the other group wasn't administered letrozole (“LTLT”). Two to three weeks after cell injections, mice in each group were randomized and treated 5 days/week with lasofoxifene (10 mg/kg, in 100 μl of PBS containing 15% PEG400), palbociclib (70 mg/kg, Med Chem Express #HY-50567, in 50 mM sodium lactate buffer pH4), or vehicle. […]

MCF7 LTLT cells = assay: Ex vivo IVIS radiance of excised liver, lung, brain and bone at sacrifice (metastasis), MCF7 LTLT MIND model; design: species or system NSG mice; settings: ex vivo radiance in bones at sacrifice
Procedure: (§1) After cell injection, mice were separated into 2 equal groups; one group received 10 μg/day of letrozole in 15% PEG400 in PBS via subcutaneous injection, “LTLT-Let”; the other group wasn't administered letrozole (“LTLT”). Two to three weeks after cell injections, mice in each group were randomized and treated 5 days/week with lasofoxifene (10 mg/kg, in 100 μl of PBS containing 15% PEG400), palbociclib (70 mg/kg, Med Chem Express #HY-50567, in 50 mM sodium lactate buffer pH4), or vehicle. Lasofoxifene and vehicle were administered subcutaneously. Palbociclib was administered via oral gavage 5 times/week. Fulvestrant (Med Chem Express #HY-13636) (“IC”) (5 mg/mouse) was administered once per week via subcutaneous injection in 100 μl of mineral oil. Mice were also treated with combinations of lasofoxifene+palbociclib, fulvestrant+palbociclib, lasofoxifene+letrozole and palbociclib or fulvestrant+palbociclib, or letrozole.
After 90-93 days of treatment, mice were sacrificed, and mammary gland tumors were excised and weighed. Liver, bone brain and lungs were removed and imaged ex vivo in the IVIS 200, following an in vivo injection of luciferin 8 min prior to sacrifice, to measure luciferase activity.
At sacrifice, livers, lungs, bones and brains were excised and imaged ex vivo on the IVIS. […] Data for Let^+ group were evaluated but are not shown.

[2] = system: MCF7 LTLT (AI-resistant, ER+, cells lacking ESR1 gain-of-function mutations) tumors; assay: MIND model: luciferase-GFP MCF7 LTLT cells in mammary ducts of NSG mice, live luminescence imaging of primary tumors (total photon flux); type: in vivo; settings: for Inhibition of primary tumor growth (conclusion in words): MCF7 LTLT tumors, AI-resistant, no ESR1 gain-of-function mutations
Procedure: Luciferase-GFP tagged LTLT cells were injected into the mammary ducts of NSG mice (MIND model) and tumor progression was monitored by live luminescence imaging of primary tumors, as well as ex vivo imaging and histochemical analysis of metastatic sites at study endpoint. Primary tumor area was also measured at study endpoint.
Cells were grown in RPMI containing 10% FBS and 1 μM letrozole.
Mouse studies were performed in compliance with an approved Institutional Animal Care and Use Committee protocol. NSG (NOD.Cg-Prkdcscid Il2rgtmlWjl/SzJ) mice were purchased from The Jackson Laboratories. Prior to injection, mice were anesthetized via inhalation with 2-3% isoflurane in oxygen. […] Tumor growth in situ was followed via imaging in a Xenogen IVIS 200 instrument in the Integrated Small Animal Imaging Research Resource at the University of Chicago.
Lasofoxifene and vehicle were administered subcutaneously. Palbociclib was administered via oral gavage 5 times/week. […] Mice were also treated with combinations of lasofoxifene+palbociclib, fulvestrant+palbociclib, lasofoxifene+letrozole and palbociclib or fulvestrant+palbociclib, or letrozole.
MCF7 LTLT cells labeled with GFP luciferase were injected into the mammary ducts of NSG mice to establish tumors that represent an AI resistant, non-ESR1-mutated, breast cancer model. Treatment with lasofoxifene, palbociclib and combinations of lasofoxifene and palbociclib were carried out in the presence (Let^+) or absence (Let^−) of letrozole, to account for the potential loss of letrozole resistance (“reversion”) in the Let^− cohort. Mice were imaged every other week in a Xenogen IVIS scanner to estimate tumor growth. At the end of the study, mammary glands were removed and weighed.

MCF7 LTLT primary tumors [3] = assay: Ki67 proliferation index by immunohistochemistry on fixed mammary glands, MCF7 LTLT MIND model; type: in vivo, NSG mice; settings: for Effect on Ki67 percentage / proliferation index (in words): MCF7 LTLT model, comparisons as stated; for % Ki67 % mean: MCF7 LTLT primary tumors, IHC at sacrifice after 90-93 days of treatment, manual counting, Let− cohort, and Let+ cohort where label includes letrozole; for Ki67 percentage (mean +/− standard deviation): Let+ cohort (all groups also received letrozole 10 μg/day)
Procedure: as §1
Harvested tissues were fixed in formalin for IHC and H&E staining. Tissue histology was performed by the Human Tissue Resource Center (HRTC) at the University of Chicago. Primary Glands excised from the mice were sectioned and stained with antibodies to estrogen receptor alpha (ThermoScientific, RM-9101-S0, clone SP1), progesterone receptor (ThermoScientific, RM-9102-S0, clone SP2), glucocorticoid receptor (Cell Signaling, Cat #3660), androgen receptor (Abcam, ab133273, clone EPR1535), Ki67 (ThermoScientific, Cat #RM-9106-s, Clone: SP6) and human-specific mouse monoclonal antibody to mitochondria (Abcam, ab92824, clone 112-1).
(§2) H&E and IHC slides were scanned on a Nikon eclipse Ti2 microscope with a 10× objective for high resolution images. Ki67 score was determined using standardized manual counting.
Immunohistochemistry with anti-Ki67 antibody was performed on fixed mammary glands to determine the proliferation index for MCF7 LTLT primary tumors.

MCF7 LTLT primary tumors [4] = assay: Percent tumor area vs total gland area by H&E of mammary gland sections, MCF7 LTLT MIND model; type: in vivo, NSG mice; settings: Let− cohort
Procedure: as §1
Harvested tissues were fixed in formalin for IHC and H&E staining. Tissue histology was performed by the Human Tissue Resource Center (HRTC) at the University of Chicago. […]
as §2
H&E slides were scanned on a Nikon microscope and analyzed with the NSI element software.

[5] = post-menopausal women with no history of breast cancer, wild estrogen receptors; cited from earlier work
[6] = system: MCF-7 xenograft with activating ERα mutations; settings: gain-of-function activating mutations in the ERα receptor; previous studies; cited from earlier work

SMILES | Mammary gland weight at end of study (in words) (MCF7 LTLT primary tumors [1]) | Bone readings with a signal above threshold (MCF7 LTLT cells) [readings] | Tumor photon flux in the presence of letrozole (in words) ([2]; Let+ cohort, data not shown) | Total photon flux over time (in words) ([2]; imaged every other week, Let− cohorts shown) | Effect on Ki67 percentage / proliferation index (in words) (MCF7 LTLT primary tumors [3]; Let+ cohort) | % Ki67 % mean (MCF7 LTLT primary tumors [3]) [%] | % tumor area of total gland area, H&E (in words) (MCF7 LTLT primary tumors [4]) | Ki67 percentage (mean +/− standard deviation) (MCF7 LTLT primary tumors [3]) | Risk of ER+ breast cancer (in words) [5] | Inhibition of tumor growth and metastasis compared with fulvestrant (in words) [6] | Bone metastasis / bone radiance versus vehicle (in words) (MCF7 LTLT cells) | Inhibition of primary tumor growth (conclusion in words) [2] | Inhibition of primary tumor growth (conclusion in words) ([2]; listed as Lasofoxifene) | Photon flux at day 104 (in words) ([2]; day 104, regardless of the presence of letrozole) | Reduction of the Ki67 percentage (MCF7 LTLT primary tumors [3]; Let+ cohort, versus letrozole control) [%]
C[C@]12CC[C@@H]3c4ccc(O)cc4C[C@@H](CCCCCCCCC[S+]([O-])CCCC(F)(F)C(F)(F)F)[C@H]3[C@@H]1CC[C@@H]2O (stereo partly shown) [fulvestrant (ICI), fulvestrant] | inhibits mammary gland weight | 2 | appeared to increase tumor photon flux | higher than all other treatments | do not reduce Ki67% levels | 56.8 | did not reach statistical significance | – | – | – | – | – | – | – | –
CC(=O)c1c(C)c2cnc(Nc3ccc(N4CCNCC4)cn3)nc2n(C2CCCC2)c1=O [palbociclib] | – | – | – | – | – | 51.7 | – | 45.3+/−19.0% | – | – | – | – | – | – | –
N#Cc1ccc(C(c2ccc(C#N)cc2)n2cncn2)cc1 [letrozole] | – | – | – | – | significantly lowers the Ki67 percentage | 39.5 | – | 39.5+/−7.7% | – | – | – | – | – | – | –
Oc1ccc2c(c1)CC[C@H](c1ccccc1)[C@@H]2c1ccc(OCCN2CCCC2)cc1 [lasofoxifene] | inhibits increases in primary tumor weight | – | – | – | – | 46.0 | significantly lower | – | reduce the risk of ER^+ breast cancer | more effective than fulvestrant at inhibiting tumor growth and metastasis to the liver, lung, bone and brain | appears to inhibit metastasis to the bone | significantly inhibits primary tumor growth | significantly more effective than fulvestrant | significantly lower than vehicle and fulvestrant (ICI) treatment | 6.5
